Laboratory results taken from patent US20050288238A1, “Benzocyclodecane derivatives with antitumor activity” (Pfizer Inc, priority 2004, published 2005).

Target: T1, Pig brain tubulin (Sus scrofa, UniProt P02550+P02554)
T1 construct: Pig brain tubulin was prepared by two cycles of assembly and disassembly; from tissue; host or cells: pig brain
Experiment: Microtubule assembly and disassembly assay
Format: biochemical
Details: 0.5 mg/ml tubulin, 1 mM GTP, turbidity at 340 nm, reassembly after CaCl2 (5 mM)
Method: Microtubule assembly and disassembly assay.
Pig brain tubulin was prepared by two cycles of assembly and disassembly and it was stored in liquid nitrogen in Microtubule Assembly Buffer (MAB: 0.1 M MES, 2.5 mM EGTA, 0.5 mM MgSO4, 0.1 mM EDTA, 0.1 mM DTT pH 6.4). Assembly was monitored by the method of Gaskin et al. (Gaskin F, Cantor C R, Shelanski M L, 1974,: Turbidimetric studies of the in vitro assembly and disassembly of porcine neurotubules. J. Mol. Biol. 89: 737-758). The cuvette (1 cm path) containing 0.5 mg/ml tubulin and 1 mM GTP was shifted to 37° C. and continuous turbidity measurements were made at 340 nm on a spectrophotometer equipped with an automatic recorder and a thermostatically regulated sample chamber. After 30 min CaCl2 (5 mM) was added and disassembly was monitored for 10 min as decreased turbidity. Scalar doses of test compounds were monitored at regular intervals of 15 min.
(ED90) was calculated on this curve.

T1 sequence (P02550 whole entry): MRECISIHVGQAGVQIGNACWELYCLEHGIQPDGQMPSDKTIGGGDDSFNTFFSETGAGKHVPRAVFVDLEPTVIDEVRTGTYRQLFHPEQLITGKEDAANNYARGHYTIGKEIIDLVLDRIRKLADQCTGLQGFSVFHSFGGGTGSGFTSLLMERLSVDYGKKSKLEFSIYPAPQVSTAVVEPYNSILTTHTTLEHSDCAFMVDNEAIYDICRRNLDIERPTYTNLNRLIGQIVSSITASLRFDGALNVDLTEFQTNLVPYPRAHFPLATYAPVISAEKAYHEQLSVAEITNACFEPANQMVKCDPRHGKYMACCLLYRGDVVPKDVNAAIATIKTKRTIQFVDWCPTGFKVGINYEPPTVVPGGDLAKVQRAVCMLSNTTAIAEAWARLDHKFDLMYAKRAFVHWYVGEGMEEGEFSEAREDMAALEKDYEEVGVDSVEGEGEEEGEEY
T1 sequence (P02554 whole entry): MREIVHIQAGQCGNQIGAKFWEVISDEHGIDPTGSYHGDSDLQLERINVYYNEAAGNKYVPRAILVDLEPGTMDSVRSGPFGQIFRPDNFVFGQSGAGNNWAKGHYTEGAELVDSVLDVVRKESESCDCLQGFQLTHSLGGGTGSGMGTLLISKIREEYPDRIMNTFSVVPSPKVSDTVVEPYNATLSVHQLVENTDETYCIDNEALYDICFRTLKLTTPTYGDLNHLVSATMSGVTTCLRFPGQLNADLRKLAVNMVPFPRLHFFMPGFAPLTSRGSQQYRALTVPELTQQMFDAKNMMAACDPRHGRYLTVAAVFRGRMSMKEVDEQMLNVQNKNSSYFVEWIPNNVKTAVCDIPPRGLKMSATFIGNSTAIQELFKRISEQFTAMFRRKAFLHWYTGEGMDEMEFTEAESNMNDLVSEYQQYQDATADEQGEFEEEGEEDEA

Compound: CC(=O)OC1C/C=C\CC(OC(=O)/C=C/c2cn(C)cn2)Cc2ccccc2C1 (stereo not shown) [I^v a, 11-(Acetyloxy)-5,6,7,10,11,12-hexahydrobenzo[a][10]annulen-6-yl (2E)-3-(1-methyl-1H-imidazol-4-yl)prop-2-enoate]
- ED90 (dose effecting tubulin assembly by 90% at 37° C.): 10 µM
